These results are taken from article PMC2639705, “Two Chromogranin A-Derived Peptides Induce Calcium Entry in Human Neutrophils by Calmodulin-Regulated Calcium Independent Phospholipase A2” (PLoS ONE, 2009).

Test [1] concerns PMNs. Briefly: Time-lapse intracellular Ca2+ imaging (Fura-2), with SOC/ARC blockers and iPLA2/PLA2 inhibitors. It counts as cell-based, human. The following applies: for Ca2+ influx induced by CaM antagonists: 30 µM W7 or 1 µM CMZ.
The test system of a further test is iPLA2. Nature of the test: iPLA2 activity assay (modified cPLA2 assay kit). It counts as biochemical, human. The settings on record: 20 µM CHR, 20 µM CAT, 1 µM CMZ or 50 µM W7, 30 min at 37°C; absorbance 405 nm per mg protein; two experiments in triplicate.
Another test has as its system SOCs. Further details: method as in PMID 15280576, PMID 15951181, PMID 17003039. The settings on record: ref [42]–[44]; cited from earlier work.
For a further test, the system named is human PMNs. Briefly: Flow cytometry, Ca2+ influx in Fluo-3-loaded PMNs. The following applies: for Ca2+ influx: human PMNs, Fluo-3, 20 µM peptide (or tryptic digest of 20 µM CAT/CHR), presence of extracellular Ca2+ (1 mM; 1.1 mM CaCl2 at t = 620 s), at least triplicates. It counts as cell-based. A general note: Flow cytometry measures light scatter and fluorescence of single cells or particles in a stream.

The test system of test [2] is PMNs. Briefly: HPLC and NanoLC-MS/MS proteomic analysis of PMN secretions induced by CHR and CAT. The following applies: trypsin, protein threshold 1 peptide score > 52 or at least 2 peptides with score >20.
For a further test, the system named is pancreatic beta-cells. The settings on record: ref [2]; cited from earlier work. The text has this: Chromogranin A (CgA) is a well-studied member of the chromogranin/secretogranin family, present in secretory cells of the nervous, endocrine and immune systems. CgA was the first chromogranin to be characterized as an acidic protein co-stored and co-released with the catecholamine hormones from the chromaffin cells of the adrenal medulla. […] Numerous endogenous cl ...

The test system of test [3] is PMNs. Nature of the test: Confocal microscopy, uptake of rhodamine-labelled peptides into PMNs. The following applies: 20 µM rhodamine-labelled peptide, 2 min, PBS pH 7.4, room temperature, confocal microscopy after paraformaldehyde fixation. It counts as cell-based, human.
Description: PMNs (1.10^6/mL) were incubated 2 min at room temperature (RT) with rhodamine-labelled peptides (20 µM) in Phosphate Buffered Saline consisting of 10.5 mM KH2PO4, 30 mM Na2HPO4, 0.154 M NaCl, pH 7.4, washed and subsequently centrifuged by cytospins of 1–2.10^5 isolated PMNs onto glass slides (300 rpm, 10 min, RT). Cytospins were fixed with 4% (v/v) paraformaldehyde in PBS at RT for 20 min, then incubated with Draq-5 (dilution1∶500, Biostatus Limited., Leicestershire, UK) for 15 min. Stained cells were monitored with a Zeiss LSM 510 laser scanning microscope (Zeiss, Iena, Germany) equipped with a Planapo oil immersion objective (×63, numerical aperture 1.4).
The test system of the next test is calmodulin (CaM). Nature of the test: Surface Plasmon Resonance, CaM binding to immobilized peptides. The following applies: pH 6.5. The procedure: Figure 5 Interaction of CHR and CAT with calmodulin (CaM). A) Fluorescence confocal microscopy of PMNs after incubation during 120 s with 20 µM rhodamine-labeled peptides (Rho-CHR or Rho-CAT). Control peptide: 20 µM rhodamine labeled Hippocampal Cholinergic Neurostimulating Peptide (Rho-HCNP). The PMNs nuclei were labeled with Draq-5. B) Alignment of the CHR and CAT sequences with two CaM binding motifs 1-8-14 B and 1-5-10. The alignment has been obtained manually so that hydrophobic residues occupy invariant positions shown with boldface letters. The net positive charge is also indicated. C) (1) Interactions between CaM, CAT and CHR by Surface Plasmon Resonance (SPR) Peptides were immobilized on a CM5 Biacore chip using amine-coupling chemistry. CaM (5 µM) was added at arrow and allowed to stabilize for 10 min. Dissociation by washing was recorded for the following 10 min. All measurements were performed at 20°C. The resulting sensorgrams were analyzed using BIAevaluation Software. (2) Calmodulin-Affinity Chromatography of CHR and CAT. The retained and eluted peptides were immunodetected by dot blot with anti-CHR (monoclonal anti-CgA47–68) and anti-CAT (polyclonal anti-CgA344–364). […]
Experiments were conducted on a Biacore 3000™ (GE Healthcare) and peptides were immobilized on a CM5 Biacore chip using amine-coupling. […] Sensorgrams were analyzed by using BIAevaluation Software.

Entries after “also recorded” stand apart in the source; their conditions may differ. Like-named read-outs stand apart in the source and are kept apart here. Positions of bridges follow the written chain, without caps; N, C: chain ends. No end group written: not given here. rhodamine = not defined here

Consider `NCCOB(c1ccccc1)c1ccccc1` [2-APB, 2-aminoethyl diphenylborinate], for which, in the test with PMNs [1], the “inhibition of AA-induced Ca2+ influx” value is recorded as “insensitive to 2-APB”, the “inhibition of CAT-induced Ca2+ entry” value is “completely blocked the entry of extracellular Ca^2+; also recorded: inhibits completely the calcium entry; also recorded: abolished the transient Ca^2+ influx induced by CHR or CAT similarly to 2-APB”, the “inhibition of CHR-induced Ca2+ entry” value is recorded as “completely blocked the entry of extracellular Ca^2+; also recorded: inhibits completely the calcium entry; also recorded: abolished the transient Ca^2+ influx induced by CHR or CAT similarly to 2-APB” and the “suppression of CMZ-induced Ca2+ influx” value is on record as “significantly suppressed”. For the same compound, the “suppression of W7-induced Ca2+ influx” value in the test with PMNs [1] is reported as “significantly suppressed”.
Regarding `CCCCC/C=C\C/C=C\C/C=C\C/C=C\CCCC(=O)O` [AA, Arachidonic Acid], the “Ca2+ influx induced by AA” value in the test with PMNs [1] (PMNs, Fura-2, 50 µM AA, 2.5 mM CaCl2) was “calcium influx induced by 50 µM AA”.
In the case of `O=C1O/C(=C/Br)CCC1c1cccc2ccccc12` (stereo not shown) [BEL, Bromoenol lactone], the “inhibition of CAT-induced Ca2+ entry” value in the test with PMNs [1] (PMNs, Fura-2, 20 µM CAT, 2.5 mM CaCl2, 100 µM 2-APB (2 min), 25 µM BEL (30 min) or 10 µM BPB (10 min) before peptide) is reported as “abolished the transient Ca^2+ influx”. The “inhibition of CHR-induced Ca2+ entry” value in the test with PMNs [1] (PMNs, Fura-2, 20 µM CHR, 2.5 mM CaCl2, 100 µM 2-APB (2 min), 25 µM BEL (30 min) or 10 µM BPB (10 min) before peptide) is reported as “abolished the transient Ca^2+ influx”. The “suppression of CMZ-induced Ca2+ influx” value with PMNs [1] (PMNs, Fura-2, 37°C, 1 µM CMZ, 25 µM BEL (30 min), 10 µM BPB (10 min) or 100 µM 2-APB (2 min) before) is reported as “significantly suppressed”. In addition, the “suppression of W7-induced Ca2+ influx” value in the test on PMNs [1] (PMNs, Fura-2, 37°C, 30 µM W7, 25 µM BEL (30 min), 10 µM BPB (10 min) or 100 µM 2-APB (2 min) before) is “significantly suppressed”.
In the case of `Clc1ccc(C(c2ccc(Cl)cc2)n2cc[n+](CC(OCc3ccc(Cl)cc3Cl)c3ccc(Cl)cc3Cl)c2)cc1` (stereo not shown) [CMZ, calmidazolium], in the test on iPLA2, the “stimulation of iPLA2 enzymatic activity in PMNs” value is recorded as “stimulated”. In the test on PMNs [1] (PMNs, Fura-2, 37°C), the “Ca2+ influx induced by CaM antagonists” value is on record as “induced longer lasting rises in influx”. For the same compound, in the test with SOCs, the “direct activation of SOCs” value is “may directly activate SOCs without the release of intracellular Ca^2+ stores”.
With `[Cl][Gd]([Cl])[Cl]` [Gd^3+, gadolinium chloride], in the test with PMNs [1], the “inhibition of AA-induced Ca2+ influx” value is “inhibited by gadolinium chloride (Gd^3+)”.
Take `NCCCCCCNS(=O)(=O)c1cccc2c(Cl)cccc12` [W7, N-(6-aminohexyl)-5-chloro-l-naphthalenesulfonamide]: in the test on iPLA2, the “stimulation of iPLA2 enzymatic activity in PMNs” value is recorded as “stimulated”. Further, the “Ca2+ influx induced by CaM antagonists” value with PMNs [1] (PMNs, Fura-2, 37°C) is given as “induced longer lasting rises in influx”.
Turning to “ALQGAKERTHQQ [CgA65–76, the natural peptide CgA65–76 (…)]”, the “Ca2+ influx” value with human PMNs is reported as “failed to affect the Ca^2+ influx”.
“CIVEVISDTLSKPSPMPVSKEC (disulfide 1-22 (inferred)) [CgA17–40]”: the “Ca2+ influx” value in the test with human PMNs is on record as “failed to affect the Ca^2+ influx”.
Regarding “Castestatin (SSMKLSFRARAYGFRGPGPQL; Catestatin; UniProt P10645 370-390, looked up)”, the “Protein identified in PMN secretion (Protein name)” value with PMNs [2] (sample Castestatin_1, Mascot) is reported as “Protein S100-A9 - Homo sapiens (Human); also recorded: Protein S100-A12 - Homo sapiens (Human)”; in the test with PMNs [2] (sample Castestatin_6, Mascot), “Actin, cytoplasmic 1 - Homo sapiens (Human)”; in the test on PMNs [2] (sample Castestatin_7, Mascot), “Actin, cytoplasmic 1 - Homo sapiens (Human)”; in the test on PMNs [2] (sample Castestatin_8, Mascot), “Hemoglobin subunit alpha - Homo sapiens (Human)”; in the test on PMNs [2] (sample Castestatin_9, Mascot) it was “Hemoglobin subunit beta - Homo sapiens (Human)”; in the test with PMNs [2] (sample Castestatin_10, Mascot) it was “High mobility group protein B2 - Homo sapiens (Human); also recorded: Hemoglobin subunit beta - Homo sapiens (Human)”. For the same compound, the “Protein identified in PMN secretion (Protein name)” value in the test on PMNs [2] (sample Castestatin_11, Mascot) was “Heterogeneous nuclear ribonucleoproteins A2/B1 - Homo sapiens (Human); also recorded: Phosphatidylethanolamine-binding protein 1 - Homo sapiens (Human); also recorded: Heterogeneous nuclear ribonucleoprotein A1 - Homo sapiens (Human); also recorded: Filamin-A - Homo sapiens (Human); also recorded: Low affinity immunoglobulin gamma Fc region receptor III-B precursor - Homo sapiens (Human); also recorded: Alpha-1-acid glycoprotein 1 precursor - Homo sapiens (Human); also recorded: Haptoglobin precursor [Contains: Haptoglobin alpha chain; Haptoglobin beta chain] - Homo sapiens (Human); also recorded: SH3 domain-binding glutamic acid-rich-like protein - Homo sapiens (Human)”.
Consider “NSPMNKGDTEVMK [CgA4–16, peptide derived from the N-terminal CgA domain (…)]”, for which, in the test on human PMNs, the “Ca2+ influx” value is reported as “failed to affect the Ca^2+ influx”.
On to “Pancreastatin (AAPGWPEDGAGKMGAEEAKPPEGKGEWAHSRQEEEEMARAPQVLFRG; Pancreastatin; UniProt P05059 266-312, looked up) [CgA-derived peptide (bCGA248–293)]”, for which the “effect on glucose-evoked insulin secretion” value with pancreatic beta-cells is “able to inhibit the glucose-evoked insulin secretion from pancreatic beta-cells”.
Turning to “rhodamine-labeled CAT: CAT conjugated with 5(6)-carboxytetramethyl rhodamine at the N-terminal extremity ({5(6)‑carboxytetramethylrhodamine}-SSMKLSFRARAYGFRGPGPQL; UniProt P10645 370-390, looked up)”, the “detection in PMN cytoplasm (uptake)” value with PMNs [3] is “detected in the cytoplasm”.
On to “rhodamine-labeled Hippocampal Cholinergic Neurostimulating Peptide (HCNP): control peptide, rhodamine-labeled Hippocampal Cholinergic Neurostimulating Peptide (HCNP) (rhodamine-PVDLSKWSGPL; reading uncertain; UniProt P30086 2-12, looked up)”, for which, in the test on human PMNs (PMNs, data not shown, method and concentration not stated), the “Ca2+ influx induced by labelled control peptide” value is on record as “unable to induce Ca^2+ influx into PMNs”. The “detection in PMN cytoplasm (uptake)” value with PMNs [3] is recorded as “not detected in the cytoplasm”.
On to “scrambled CAT: scrambled CAT peptide (SLPRRQLPSSAGMRGGKFAYF)”, for which the “interaction with CaM by SPR” value in the test with calmodulin (CaM) is “inactive”.
